Laboratory results taken from PubChem BioAssay (NCI).
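1) Cells in 96-well plates. 2) Compound, 48 h, 5 concentrations. 3) Linear interpolation between surrounding doses. 4) Unreached endpoint = highest concentration. Here, GI50 denotes the concentration required for 50% inhibition of growth. TGI: concentration producing complete growth inhibition.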

Legend:
Assay in all cases: NCI-60 cell line screen, 48 h
[1] = test system: 786-0 renal
[2] = test system: A498 renal
[3] = test system: A549 NSCLC
[4] = test system: ACHN renal
[5] = test system: BT-549 breast
[6] = test system: CAKI-1 renal
[7] = test system: CCRF-CEM leukemia
[8] = test system: COLO 205 colon
[9] = test system: DU-145 prostate
[10] = test system: EKVX NSCLC
[11] = test system: HCC-2998 colon
[12] = test system: HCT-116 colon
[13] = test system: HCT-15 colon
[14] = test system: HL-60(TB) leukemia
[15] = test system: HOP-62 NSCLC
[16] = test system: HOP-92 NSCLC
[17] = test system: HS 578T breast
[18] = test system: HT29 colon
[19] = test system: IGROV1 ovarian
[20] = test system: K-562 leukemia
[21] = test system: KM12 colon
[22] = test system: LOX IMVI melanoma
[23] = test system: M14 melanoma
[24] = test system: MALME-3M melanoma
[25] = test system: MCF7 breast
[26] = test system: MDA-MB-231 breast
[27] = test system: MDA-MB-435
[28] = test system: MDA-MB-468 breast
[29] = test system: MOLT-4 leukemia
[30] = test system: NCI-H226 lung
[31] = test system: NCI-H23 lung
[32] = test system: NCI-H460 lung
[33] = test system: NCI-H522 lung
[34] = test system: NCI/ADR-RES ovarian
[35] = test system: OVCAR-3 ovarian
[36] = test system: OVCAR-4 ovarian
[37] = test system: OVCAR-5 ovarian
[38] = test system: OVCAR-8 ovarian
[39] = test system: PC-3 prostate
[40] = test system: RPMI-8226 leukemia
[41] = test system: RXF 393 renal
[42] = test system: SF-268 CNS
[43] = test system: SF-295 CNS
[44] = test system: SF-539 CNS
[45] = test system: SK-MEL-2 melanoma
[46] = test system: SK-MEL-28 melanoma
[47] = test system: SK-MEL-5 melanoma
[48] = test system: SK-OV-3 ovarian
[49] = test system: SN12C renal
[50] = test system: SNB-19 CNS
[51] = test system: SNB-75 CNS
[52] = test system: SR leukemia
[53] = test system: SW-620 colon
[54] = test system: T-47D breast
[55] = test system: TK-10 renal
[56] = test system: U251 CNS
[57] = test system: UACC-257 melanoma
[58] = test system: UACC-62 melanoma
[59] = test system: UO-31 renal

## Cc1ccc(-c2cc(C(=O)N=Nc3c(O)[nH]c4ccc(F)cc34)c3ccccc3n2)cc1
[1]
  GI50: 16.6 µM
  TGI: 39.1 µM
[2]
  GI50: 19 µM
  TGI: 34.1 µM
[3]
  GI50: 5.21 µM
  TGI: 22.6 µM
[4]
  GI50: 12.7 µM
  TGI: 26 µM
[5]
  GI50: 10.7 µM
  TGI: 25.7 µM
[6]
  GI50: 12.2 µM
  TGI: 27.3 µM
[7]
  GI50: 2.11 µM
  TGI: > 100 µM
[8]
  GI50: 15.7 µM
  TGI: 34.5 µM
[9]
  GI50: 15.6 µM
  TGI: 52.1 µM
[10]
  GI50: 10.8 µM
  TGI: 27.4 µM
[11]
  GI50: 15.1 µM
  TGI: 32.7 µM
[12]
  GI50: 3.36 µM
  TGI: 13.8 µM
[13]
  GI50: 2.39 µM
  TGI: 15.3 µM
[14]
  GI50: 15.4 µM
  TGI: 54 µM
[15]
  GI50: 4.48 µM
  TGI: 18.6 µM
[16]
  GI50: 11.5 µM
  TGI: 30.8 µM
[17]
  GI50: 7.2 µM
  TGI: 66.3 µM
[18]
  GI50: 5.23 µM
  TGI: 19.2 µM
[19]
  GI50: 12.5 µM
  TGI: 28.5 µM
[20]
  GI50: 4.27 µM
  TGI: > 100 µM
[21]
  GI50: 12.5 µM
  TGI: 56 µM
[22]
  GI50: 4.1 µM
  TGI: 16.6 µM
[23]
  GI50: 11.6 µM
  TGI: 28 µM
[24]
  GI50: 8.77 µM
  TGI: 21.6 µM
[25]
  GI50: 4.6 µM
  TGI: 23 µM
[26]
  GI50: 3.42 µM
  TGI: 13.6 µM
[27]
  GI50: 11.1 µM
  TGI: 27.8 µM
[28]
  GI50: 9.09 µM
  TGI: 23.6 µM
[29]
  GI50: 4.29 µM
  TGI: > 100 µM
[30]
  GI50: 17.4 µM
  TGI: 37.2 µM
[31]
  GI50: 4.2 µM
  TGI: 18.4 µM
[32]
  GI50: 3.96 µM
  TGI: 19.8 µM
[33]
  GI50: 11.8 µM
  TGI: 27.5 µM
[34]
  GI50: 3.53 µM
  TGI: 27.5 µM
[35]
  GI50: 8.75 µM
  TGI: 30.4 µM
[36]
  GI50: 5.68 µM
  TGI: 26.6 µM
[37]
  GI50: 10.2 µM
  TGI: 23.9 µM
[38]
  GI50: 4.72 µM
  TGI: 33.2 µM
[39]
  GI50: 9.49 µM
  TGI: 91 µM
[40]
  GI50: 10.6 µM
  TGI: > 100 µM
[41]
  GI50: 7.77 µM
  TGI: 22.5 µM
[42]
  GI50: 8.11 µM
  TGI: 49.5 µM
[43]
  GI50: 11.4 µM
  TGI: 26.1 µM
[44]
  GI50: 2.64 µM
  TGI: 8.66 µM
[45]
  GI50: 17 µM
  TGI: 35 µM
[46]
  GI50: 10.2 µM
  TGI: 22.3 µM
[47]
  GI50: 15.2 µM
  TGI: 30.1 µM
[48]
  GI50: 18.9 µM
  TGI: 38.5 µM
[49]
  GI50: 3.73 µM
  TGI: 16.5 µM
[50]
  GI50: 17.3 µM
  TGI: 42.3 µM
[51]
  GI50: 10.5 µM
  TGI: 33.3 µM
[52]
  GI50: 8.17 µM
  TGI: > 100 µM
[53]
  GI50: 5.53 µM
  TGI: 26 µM
[54]
  GI50: 11 µM
  TGI: 54.2 µM
[55]
  GI50: 19.6 µM
  TGI: 36.1 µM
[56]
  GI50: 4.09 µM
  TGI: 18.2 µM
[57]
  GI50: 16.7 µM
  TGI: 33.5 µM
[58]
  GI50: 9.81 µM
  TGI: 22.7 µM
[59]
  GI50: 12.3 µM
  TGI: 24.8 µM
